Molecules are shown by their SMILES.

Test [1] concerns Cricetinae gen. sp. The test can be described thus: Effect at an oral dose of 100 mg/kg/day for 14 days on serum cholesterol level of hamster. Type of test: functional, Cricetulus griseus.
Test [2] concerns Canis familiaris. Briefly: Effect on cholesterol lowering in male Beagle dog at an oral dose of 50 mkd for 3 days. Type of test: functional, Canis lupus familiaris.
The subject of test [3] is Cricetinae gen. sp. Briefly: Effect at an oral dose of 100 mg/kg/day for 14 days on serum triglyceride level of hamster. Type of test: functional, Cricetulus griseus.
The subject of test [4] is Canis familiaris. The test can be described thus: Effect on cholesterol lowering in male Beagle dog at an oral dose of 50 mkd for 7 days. It is filed as functional, Canis lupus familiaris.
In test [5] the test system is Canis familiaris. The test can be described thus: Effect on cholesterol lowering in male Beagle dog at an oral dose of 50 mkd for 15 days. It is filed as functional, Canis lupus familiaris.
Test [6] relates to Canis familiaris. The test can be described thus: Effect on cholesterol lowering in male Beagle dog at an oral dose of 50 mkd for 10 days. It is filed as functional, Canis lupus familiaris.
The test system of test [7] is Canis familiaris. Briefly: Effect on cholesterol lowering in male Beagle dog at an oral dose of 4 mkd for 10 days. Type of test: functional, Canis lupus familiaris.
For test [8], the system named is Canis familiaris. Briefly: Effect on cholesterol lowering in male Beagle dog at an oral dose of 4 mkd for 15 days. Type of test: functional, Canis lupus familiaris.
In test [9] the test system is Canis familiaris. Briefly: Effect on cholesterol lowering in male Beagle dog at an oral dose of 4 mkd for 3 days. Type of test: functional, Canis lupus familiaris.
Test [10] deals with Canis familiaris. The test can be described thus: Effect on cholesterol lowering in male Beagle dog at an oral dose of 4 mkd for 7 days. Type of test: functional, Canis lupus familiaris.

Consider `CC(C)OC(=O)C(C)(C)Oc1ccc(C(=O)c2ccc(Cl)cc2)cc1` [FENOFIBRATE], for which the TC is on record as -28.55% in the test with Cricetinae gen. sp. [1]; -2.2% in the test on Canis familiaris [2]; -5.5% with Canis familiaris [4]; -12.3% with Canis familiaris [5]; -5.9% in the test with Canis familiaris [6]. Moreover, in the test on Cricetinae gen. sp. [3], the TG is on record as -24.08%.
`CCC(C)(C)C(=O)O[C@H]1C[C@@H](C)C=C2C=C[C@H](C)[C@H](CC[C@@H]3C[C@@H](O)CC(=O)O3)[C@H]21` [SIMVASTATIN]: the TC with Canis familiaris [7] is -9.9%; in the test with Canis familiaris [8] it was -17.1%; with Canis familiaris [9], -7.8%; with Canis familiaris [10] it was -13.3%.

The values are drawn from ChEMBL document CHEMBL1144356 (J Med Chem, 2005).
